“Also recorded” adds a separate entry of the source.
Experiments:
Acremonium chrysogenum = assay: Zone of inhibition assay (agar plates); type: cell-based; conditions: Hapsidospora chrysogena, 168 h; after 7 days, 250 μg/mL
T. rubrum = assay: Zone of inhibition assay (agar plates); type: cell-based; conditions: Trichophyton rubrum, 168 h; after 7 days, 250 μg/mL
S. hyalinum = assay: Zone of inhibition assay (agar plates); type: cell-based, Scytalidium hyalinum; set-up: key to Zone of Inhibition: X denotes no observable zone of inhibition; conditions: after 7 days, 250 μg/mL
Epidermophyton floccosum = assay: Zone of inhibition assay (agar plates); type: cell-based; set-up: key to Zone of Inhibition: X denotes no observable zone of inhibition; conditions: after 7 days, 250 μg/mL
Candida albicans = assay: Zone of inhibition assay (agar plates); type: cell-based; conditions: 168 h, after 7 days, 250 μg/mL
A. terreus = assay: Zone of inhibition assay (agar plates); type: cell-based, Aspergillus terreus; set-up: key to Zone of Inhibition: X denotes no observable zone of inhibition; conditions: after 7 days, 250 μg/mL
[1] = test system: Scopulariopsis brevicaulis; assay: Zone of inhibition assay (agar plates); type: cell-based; set-up: key to Zone of Inhibition: X denotes no observable zone of inhibition; conditions: after 7 days, 250 μg/mL
Scytalidium dimidiatum = assay: Zone of inhibition assay (agar plates); type: cell-based; set-up: key: X denotes no observable zone of inhibition; conditions: after 7 days, 250 μg/mL
Fusarium oxysporum = assay: Zone of inhibition assay (agar plates); type: cell-based; set-up: key to Zone of Inhibition: X denotes no observable zone of inhibition; conditions: after 7 days, 250 μg/mL
[2] = test system: Trichophyton mentagrophytes; assay: Zone of inhibition assay (agar plates); type: cell-based; set-up: key to Zone of Inhibition: X denotes no observable zone of inhibition; conditions: after 7 days, 250 μg/mL
C. parapsilosis = assay: Zone of inhibition assay (agar plates); type: cell-based; conditions: Lodderomyces parapsilosis, 168 h; after 7 days, 250 μg/mL
Microsporum canis = assay: Zone of inhibition assay (agar plates); type: cell-based; conditions: 168 h, after 7 days, 250 μg/mL
C. kruseii = assay: Zone of inhibition assay (agar plates); type: cell-based; set-up: key to Zone of Inhibition: X denotes no observable zone of inhibition; conditions: after 7 days, 250 μg/mL; for zone of inhibition at 250 µg/mL: 168 h
Aspergillus flavus = assay: Zone of inhibition assay (agar plates); type: cell-based; set-up: key to Zone of Inhibition: X denotes no observable zone of inhibition; conditions: after 7 days, 250 μg/mL
A. strictum = assay: Zone of inhibition assay (agar plates); type: cell-based, Acremonium strictum; set-up: key to Zone of Inhibition: X denotes no observable zone of inhibition; conditions: after 7 days, 250 μg/mL; for zone of inhibition at 250 µg/mL: Sarocladium strictum, 168 h
F. proliferatum = assay: Zone of inhibition assay (agar plates); type: cell-based; set-up: key to Zone of Inhibition: X denotes no observable zone of inhibition; conditions: after 7 days, 250 μg/mL
[3] = oral treatment, literature reports; cited from earlier work
toenail onychomycosis = conditions: oral treatment, toenail onychomycosis (Einarson et al. 1994); cited from earlier work

CC12CCC(CC1=O)C2(C)C (stereo not drawn) [Ca, Camphor]
zone of inhibition at 250 µg/mL (Acremonium chrysogenum): 10 mm
zone of inhibition at 250 µg/mL (T. rubrum): 8 mm
Zone of Inhibition (S. hyalinum): X
Zone of Inhibition (Epidermophyton floccosum): X
zone of inhibition at 250 µg/mL (Candida albicans): 7 mm
Zone of Inhibition (A. terreus): X
Zone of Inhibition [1]: X
Zone of Inhibition (Scytalidium dimidiatum): X
Zone of Inhibition (Fusarium oxysporum): X
Zone of Inhibition [2]: X
zone of inhibition at 250 µg/mL (C. parapsilosis): 7 mm
zone of inhibition at 250 µg/mL (Microsporum canis): 2 mm
Zone of Inhibition (C. kruseii): X
Zone of Inhibition (Aspergillus flavus): X
Zone of Inhibition (A. strictum): X
Zone of Inhibition (F. proliferatum): X

COC1=CC(=O)C[C@@H](C)[C@]12Oc1c(Cl)c(OC)cc(OC)c1C2=O [GRI, griseofulvin]
side effects [3]: elevated liver enzymes
success rates of the treatments (toenail onychomycosis): 17.5%

CC(=O)N1CCN(c2ccc(OCC3COC(Cn4ccnc4)(c4ccc(Cl)cc4Cl)O3)cc2)CC1 (stereo not drawn) [KET, ketoconazole]
side effects [3]: elevated liver enzymes; also recorded: anti-androgenic dysfunction in males and adrenal dysfunction
success rates of the treatments (toenail onychomycosis): 40.8%

CC1CCC(C(C)C)C(O)C1 (stereo not drawn) [M, Menthol]
zone of inhibition at 250 µg/mL (Acremonium chrysogenum): 15 mm
zone of inhibition at 250 µg/mL (T. rubrum): 15 mm
Zone of Inhibition (S. hyalinum): X
zone of inhibition at 250 µg/mL (Epidermophyton floccosum; Epidermophyton floccosum, 168 h): 2 mm
zone of inhibition at 250 µg/mL (Candida albicans): 14 mm
Zone of Inhibition (A. terreus): X
Zone of Inhibition [1]: X
Zone of Inhibition (Scytalidium dimidiatum): X
Zone of Inhibition (Fusarium oxysporum): X
Zone of Inhibition [2]: X
zone of inhibition at 250 µg/mL (C. parapsilosis): 11 mm
zone of inhibition at 250 µg/mL (Microsporum canis): 3 mm
zone of inhibition at 250 µg/mL (C. kruseii): 12 mm
Zone of Inhibition (Aspergillus flavus): X
zone of inhibition at 250 µg/mL (A. strictum): 9 mm
Zone of Inhibition (F. proliferatum): X

Cc1ccc(C(C)C)c(O)c1 [T, Thymol]
zone of inhibition at 250 µg/mL (Acremonium chrysogenum): 20 mm
zone of inhibition at 250 µg/mL (T. rubrum): 16 mm
zone of inhibition at 250 µg/mL (S. hyalinum; Neoscytalidium hyalinum, 168 h): 5 mm
Zone of Inhibition (Epidermophyton floccosum): X
zone of inhibition at 250 µg/mL (Candida albicans): 17 mm
zone of inhibition at 250 µg/mL (A. terreus; Aspergillus terreus, 168 h): 3 mm
zone of inhibition at 250 µg/mL ([1]; Scopulariopsis brevicaulis, 168 h): 14 mm
Zone of Inhibition (Scytalidium dimidiatum): X
zone of inhibition at 250 µg/mL (Fusarium oxysporum; Fusarium oxysporum, 168 h): 2 mm
zone of inhibition at 250 µg/mL ([2]; Trichophyton mentagrophytes, 168 h): 10 mm
zone of inhibition at 250 µg/mL (C. parapsilosis): 20 mm
zone of inhibition at 250 µg/mL (Microsporum canis): 20 mm
zone of inhibition at 250 µg/mL (C. kruseii): 16 mm
zone of inhibition at 250 µg/mL (Aspergillus flavus; Aspergillus flavus, 168 h): 6 mm
zone of inhibition at 250 µg/mL (A. strictum): 12 mm
zone of inhibition at 250 µg/mL (F. proliferatum; Fusarium proliferatum, 168 h): 3 mm

CN(C/C=C/C#CC(C)(C)C)Cc1cccc2ccccc12 [TER, terbinafine]
success rates of the treatments (toenail onychomycosis): 78.3%

CCC(C)n1ncn(-c2ccc(N3CCN(c4ccc(OCC5COC(Cn6cncn6)(c6ccc(Cl)cc6Cl)O5)cc4)CC3)cc2)c1=O (stereo not drawn) [itraconazole]
side effects [3]: elevations of serum transaminases, alkaline phosphatase and bilirubin

Source: patent US6344190B1, “Method and compositions for treatment of fungal nail disease” (Board of Trustees of Michigan State University, priority 1999, dated 2002)
